Assay [1] is described as follows: Inhibition of CAMK2.
Assay [2] deals with T1, Calcium/calmodulin-dependent protein kinase type IV (Homo sapiens, UniProt Q16566).
T1 sequence (Q16566 whole entry): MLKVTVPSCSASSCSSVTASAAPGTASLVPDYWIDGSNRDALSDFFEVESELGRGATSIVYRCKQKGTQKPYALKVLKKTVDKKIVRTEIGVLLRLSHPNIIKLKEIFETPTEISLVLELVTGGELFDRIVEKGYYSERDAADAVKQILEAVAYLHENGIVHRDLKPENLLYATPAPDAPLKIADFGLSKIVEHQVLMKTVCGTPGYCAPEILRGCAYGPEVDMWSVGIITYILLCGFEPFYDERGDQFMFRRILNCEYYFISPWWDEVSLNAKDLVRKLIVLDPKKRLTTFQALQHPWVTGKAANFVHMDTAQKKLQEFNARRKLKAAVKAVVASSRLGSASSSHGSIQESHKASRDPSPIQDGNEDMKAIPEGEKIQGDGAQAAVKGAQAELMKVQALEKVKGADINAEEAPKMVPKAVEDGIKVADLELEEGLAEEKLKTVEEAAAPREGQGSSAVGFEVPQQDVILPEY
In words: Inhibition of CAMK4.

In assay [3] the target is Myosin light chain kinase, smooth muscle (Homo sapiens, UniProt Q15746). The assay is described as follows: Inhibition of MLCK.
Myosin light chain kinase, smooth muscle, sequence (Q15746 whole entry): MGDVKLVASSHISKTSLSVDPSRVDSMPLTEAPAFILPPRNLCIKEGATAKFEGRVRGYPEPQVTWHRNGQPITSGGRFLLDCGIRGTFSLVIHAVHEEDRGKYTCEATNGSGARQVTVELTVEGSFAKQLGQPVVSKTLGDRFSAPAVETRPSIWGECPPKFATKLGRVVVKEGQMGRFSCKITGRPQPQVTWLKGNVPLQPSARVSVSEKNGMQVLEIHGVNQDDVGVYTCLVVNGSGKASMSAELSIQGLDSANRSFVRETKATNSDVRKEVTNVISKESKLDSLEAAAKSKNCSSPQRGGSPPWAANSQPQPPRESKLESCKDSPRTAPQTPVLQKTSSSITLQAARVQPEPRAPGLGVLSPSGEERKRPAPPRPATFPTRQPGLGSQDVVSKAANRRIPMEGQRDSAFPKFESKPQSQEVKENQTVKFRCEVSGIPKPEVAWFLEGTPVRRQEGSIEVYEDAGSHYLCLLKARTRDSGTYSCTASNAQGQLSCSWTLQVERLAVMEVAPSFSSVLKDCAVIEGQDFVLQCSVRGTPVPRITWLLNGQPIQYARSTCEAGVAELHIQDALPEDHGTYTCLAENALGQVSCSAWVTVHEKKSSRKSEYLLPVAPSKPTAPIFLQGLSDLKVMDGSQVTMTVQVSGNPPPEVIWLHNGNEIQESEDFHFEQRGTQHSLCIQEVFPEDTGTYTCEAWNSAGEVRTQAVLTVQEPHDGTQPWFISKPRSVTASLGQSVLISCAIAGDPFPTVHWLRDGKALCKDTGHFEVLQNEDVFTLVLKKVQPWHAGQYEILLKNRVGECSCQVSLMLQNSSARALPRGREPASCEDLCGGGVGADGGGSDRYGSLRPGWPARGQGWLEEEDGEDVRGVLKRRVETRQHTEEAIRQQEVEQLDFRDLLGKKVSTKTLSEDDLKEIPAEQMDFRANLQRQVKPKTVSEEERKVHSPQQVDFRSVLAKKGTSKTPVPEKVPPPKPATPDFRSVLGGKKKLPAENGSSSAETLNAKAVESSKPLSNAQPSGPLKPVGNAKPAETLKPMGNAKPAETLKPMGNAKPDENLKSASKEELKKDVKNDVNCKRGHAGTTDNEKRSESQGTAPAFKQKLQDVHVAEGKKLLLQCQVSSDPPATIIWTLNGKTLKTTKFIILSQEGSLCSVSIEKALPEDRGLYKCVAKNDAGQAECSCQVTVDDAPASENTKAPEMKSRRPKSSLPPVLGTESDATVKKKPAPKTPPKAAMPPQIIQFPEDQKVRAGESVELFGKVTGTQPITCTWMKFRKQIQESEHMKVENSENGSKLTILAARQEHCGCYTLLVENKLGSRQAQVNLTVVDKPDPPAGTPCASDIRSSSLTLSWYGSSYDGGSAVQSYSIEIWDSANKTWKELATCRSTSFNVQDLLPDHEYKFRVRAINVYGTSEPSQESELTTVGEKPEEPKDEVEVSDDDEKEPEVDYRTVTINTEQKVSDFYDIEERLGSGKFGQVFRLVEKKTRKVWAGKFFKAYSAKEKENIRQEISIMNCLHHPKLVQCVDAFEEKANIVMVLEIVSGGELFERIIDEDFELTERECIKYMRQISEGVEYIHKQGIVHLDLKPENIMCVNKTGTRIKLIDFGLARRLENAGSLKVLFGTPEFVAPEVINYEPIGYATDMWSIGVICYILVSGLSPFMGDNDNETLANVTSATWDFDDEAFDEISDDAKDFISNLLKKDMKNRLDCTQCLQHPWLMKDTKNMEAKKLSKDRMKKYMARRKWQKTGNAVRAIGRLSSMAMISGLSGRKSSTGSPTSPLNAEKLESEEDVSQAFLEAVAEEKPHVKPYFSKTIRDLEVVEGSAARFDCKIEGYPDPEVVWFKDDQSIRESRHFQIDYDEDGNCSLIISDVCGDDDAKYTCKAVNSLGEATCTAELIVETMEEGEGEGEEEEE
In assay [4] the target is Mitogen-activated protein kinase 14 (Homo sapiens, UniProt Q16539). The assay is described as follows: Inhibition of p38alpha.
Mitogen-activated protein kinase 14, sequence (Q16539 whole entry): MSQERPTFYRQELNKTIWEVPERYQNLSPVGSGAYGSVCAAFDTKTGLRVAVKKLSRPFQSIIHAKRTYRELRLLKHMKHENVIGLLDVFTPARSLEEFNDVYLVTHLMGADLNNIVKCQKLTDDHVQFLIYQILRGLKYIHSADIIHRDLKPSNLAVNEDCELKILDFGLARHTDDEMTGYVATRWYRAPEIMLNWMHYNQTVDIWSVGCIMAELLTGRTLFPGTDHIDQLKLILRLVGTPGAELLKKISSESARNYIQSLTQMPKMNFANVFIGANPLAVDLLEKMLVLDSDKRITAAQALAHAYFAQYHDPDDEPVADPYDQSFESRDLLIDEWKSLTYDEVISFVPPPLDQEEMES
Assay [5] deals with RAC-alpha serine/threonine-protein kinase (Homo sapiens, UniProt P31749). In words: Inhibition of AKT1.
RAC-alpha serine/threonine-protein kinase, sequence (P31749 whole entry): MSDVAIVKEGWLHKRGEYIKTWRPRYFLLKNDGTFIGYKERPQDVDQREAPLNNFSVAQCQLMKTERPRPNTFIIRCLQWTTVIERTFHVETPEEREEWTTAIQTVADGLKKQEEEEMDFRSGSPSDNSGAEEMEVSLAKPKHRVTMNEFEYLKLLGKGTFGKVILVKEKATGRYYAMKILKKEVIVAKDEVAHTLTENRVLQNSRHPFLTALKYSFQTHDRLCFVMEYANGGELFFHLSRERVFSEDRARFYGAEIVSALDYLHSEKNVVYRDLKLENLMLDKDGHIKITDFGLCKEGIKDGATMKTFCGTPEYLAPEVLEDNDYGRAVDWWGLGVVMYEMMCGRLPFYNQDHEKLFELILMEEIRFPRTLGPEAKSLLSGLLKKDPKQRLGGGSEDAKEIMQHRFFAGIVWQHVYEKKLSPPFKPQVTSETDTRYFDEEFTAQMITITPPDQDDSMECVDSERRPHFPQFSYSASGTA
Assay [6] can be described thus: Inhibition of PKC.
Assay [7] can be described thus: Non-competitive inhibition of CAMK2 by Michaelis-Menten plot.

From ChEMBL document CHEMBL1268914, “5,6,7,8-Tetrahydropyrido[4,3-d]pyrimidines as novel class of potent and highly selective CaMKII inhibitors” (Bioorg Med Chem Lett, 2010) come the findings set out here.

Structures are written as SMILES. Bounds are passed on as bounds.

By IC50 is commonly meant the point on the concentration scale where inhibition reaches its midpoint. In the case of `CS(=O)(=O)Nc1ccnc(NCCc2ccccc2)n1`, the midpoint of inhibition in assay [1], the IC50, lay at 60 µM.
Still for that read-out and setting: the figure for `O=S(=O)(Nc1nc(OCCc2ccccc2)nc2c1CN(Cc1ccccc1)CC2)c1ccc2ccccc2c1` is 1.8 µM.
`Cc1ccccc1S(=O)(=O)Nc1nc(NCCc2ccccc2)nc2c1CN(Cc1ccccc1)CC2` yielded an IC50 in assay [1] of 0.53 µM.
As to `Cc1cccc(S(=O)(=O)Nc2nc(NCCc3ccccc3)nc3c2CN(Cc2ccccc2)CC3)c1`, in assay [1], the IC50 is 2.4 µM.
Same read-out and setting: the figure for `Cc1ccc(S(=O)(=O)Nc2nc(NCCc3ccccc3)nc3c2CN(Cc2ccccc2)CC3)cc1` is 2.7 µM.
As to `COc1ccc(S(=O)(=O)Nc2nc(NCCc3ccccc3)nc3c2CN(Cc2ccccc2)CC3)cc1`, it took 3.2 µM to reach half-maximal inhibition in assay [1] (IC50).
Turning to `Cc1c(Cl)cccc1S(=O)(=O)Nc1nc(NCCc2ccccc2)nc2c1CN(Cc1ccccc1)CC2`, the IC50 in assay [1] was 0.063 µM; in assay [2], more than 60 µM; in assay [3], 36 µM; in assay [4], 11 µM; in assay [5] it was 30 µM; in assay [6] it was 21 µM.
Compound `Cc1ccc(S(=O)(=O)Nc2nc(NCCc3ccccc3)nc3c2CN(Cc2ccccc2)CC3)cc1Cl` gave an IC50 in assay [1] of 0.76 µM.
`O=S(=O)(Nc1ccnc(NCCc2ccccc2)n1)c1ccc(Cl)cc1`: the IC50 came to 11 µM in assay [1] and 51 µM in assay [3].
On to `O=S(=O)(Cc1ccccc1)Nc1ccnc(NCCc2ccccc2)n1`, for which the concentration for half-maximal inhibition (IC50) in assay [1] was found to be 27 µM.
Still for that read-out and setting: the figure for `O=S(=O)(Nc1nc(NCCc2ccccc2)nc2c1CCCC2)c1ccc(Cl)cc1` is 60 µM; for `O=S(=O)(Nc1nc(NCCc2ccccc2)nc2c1CN(Cc1ccccc1)CC2)c1ccccc1` it is 9.7 µM; for `O=S(=O)(Nc1nc(NCCc2ccccc2)nc2c1CN(Cc1ccccc1)CC2)c1ccc(Cl)cc1` it is 3.2 µM.
In turn, `CN1CCc2nc(NCCc3ccccc3)nc(NS(=O)(=O)c3ccccc3)c2C1` yielded an IC50 in assay [1] of 10 µM.
For the compound `CN(c1nc(NCCc2ccccc2)nc2c1CN(Cc1ccccc1)CC2)S(=O)(=O)c1ccccc1`, in assay [1], it took 9.3 µM to reach half-maximal inhibition (IC50).
Regarding `CCCN(c1nc(NCCc2ccccc2)nc2c1CN(Cc1ccccc1)CC2)S(=O)(=O)c1ccccc1`, the IC50 in assay [1] is more than 30 µM.
The same measure, in the same setting: next, `O=S(=O)(Nc1nc(NCCc2ccccc2)nc2c1CN(Cc1ccccc1)CC2)c1ccccc1Cl`: 0.92 µM.
Turning to `O=S(=O)(Nc1nc(NCCc2ccccc2)nc2c1CN(Cc1ccccc1)CC2)c1cccc(Cl)c1`, in assay [1], the IC50 amounted to 0.42 µM.
Take `O=S(=O)(Nc1nc(NCCc2ccccc2)nc2c1CN(Cc1ccccc1)CC2)c1cccc(Cl)c1Cl`: the IC50 in assay [1] amounted to 1 µM.
On the same count and under the same terms, next, `O=S(=O)(Nc1nc(NCCc2ccccc2)nc2c1CN(Cc1ccccc1)CC2)c1ccc(Cl)c(Cl)c1`: 0.2 µM; `O=S(=O)(Nc1nc(NCCc2ccccc2)nc2c1CN(Cc1ccccc1)CC2)c1cccc2ccccc12`: 3.3 µM.
As usually defined, the Ki is a measure of affinity in units of concentration, obtained from inhibition or displacement. Turning to `O=S(=O)(Nc1nc(NCCc2ccccc2)nc2c1CN(Cc1ccccc1)CC2)c1ccc2ccccc2c1`, the IC50 in assay [1] is 0.16 µM; in assay [2], more than 60 µM; in assay [3], 0.9 µM; in assay [4], 11 µM; in assay [5], 8.5 µM; in assay [6] it was 22 µM. In assay [7], this compound gave an inhibition constant Ki of 0.926 µM.
In the case of `COc1ccc(S(=O)(=O)N(CCO)c2ccccc2CN(C)C/C=C/c2ccc(Cl)cc2)cc1`, the IC50 in assay [1] amounted to 1.6 µM.
